Data on ten molecules can be found in patent US20240368104A1, “Novel Dialkoxynaphtho[2,3-C]Furan-1(3H)-One Derivatives and Pharmaceutical Composition For Preventing or Treating Respiratory Disease or SARS-COV-2 Infection Disease, Comprising Same” (priority 2021, published 2024).

Where two headings read alike, the source gives them in different places. Where only a bound is given, the exact number is not on record here.

Series [1] relates to IL-4 secretion in mouse splenocytes. The experiment in a line: Inhibition of IL-4 secretion in mouse splenocytes (Concanavalin A, ELISA). In kind it is cell-based, Balb/c mice. As to conditions: for inhibition at 1 µM: Splenocyte, read-out: IL-4 Secretion inhibitory ability (%); for IL-4 pg/ml: Concanavalin A 5 μg/mL, 48 hours. How it is done:
(§1) The isolated splenocytes were diluted at a concentration of 5×10^6 cells/mL in RPMI medium containing 10% fetal bovine serum (FBS) and antibiotics (penicillin at 100 U/mL, streptomycin at 100 μg/mL), distributed at 500 μl/well in a 24 well plate, and cultured in a 37° C., 5% CO2 incubator for 48 hours. When splenocytes were distributed, an immune reaction was induced by treating with 5 μg/mL of Concanavalin A, and at this time, the splenocytes were treated with the materials selected in Experimental Example 3 at a concentration of 1 uM. First, in order to measure Th2 cytokines, the medium was collected from the 24-well plate, and only the supernatant was separated through centrifugation at 800×g for five minutes, after which 100 μl of the supernatant per well was used in an enzyme-linked immunosorbent assay (ELISA, Komabiotech) experiment so as to measure a degree of secretion of Th2 cytokines IL-4 and IL-5. A degree of inhibition against secretion of cytokines by the test material was calculated using [Equation 2] below, and the measurement results are shown in Table 7.
A general note: ELISA stands for enzyme-linked immunosorbent assay.

In series [2] the test system is IL-5 secretion in mouse splenocytes. Put plainly: Inhibition of IL-5 secretion in mouse splenocytes (Concanavalin A, ELISA). In kind it is cell-based, Balb/c mice. As to conditions: for inhibition at 1 µM: Splenocyte, read-out: IL-5 Secretion inhibitory ability (%); for IL-5 pg/ml: Concanavalin A 5 μg/mL, 48 hours. How it is done: as §1
Series [3] deals with IL-4 secretion in RBL-2H3 cells. Put plainly: Inhibition of IL-4 secretion in RBL-2H3 cell line (A23187 induced, ELISA). In kind it is cell-based. As to conditions: Rattus norvegicus. On the procedure: The RBL-2H3 cell line was purchased from the American Type Culture Collection (ATCC #CRL-2256). The cells were diluted at a concentration of 1×10^6 cells/ml in RPMI medium containing 15% fetal bovine serum (FBS) and antibiotics (penicillin at 100 U/mL, streptomycin at 100 μg/mL), distributed at 200 μl/well in a 48 well plate, and cultured in a 37° C., 5% CO2 incubator for 24 hours. In 24 hours later, the cells were pre-treated one hour before with a test drug and AS1517499 (STAT6 inhibitor) as a control drug, and treated with 1 uM of A23187 for six hours to induce an immune response, after which a group not containing the drug was used as a control. In order to measure a secretion level of cytokine IL-4, the medium was collected from the well plate and centrifuged at 125×g for five minutes to remove a residue, and 100 μl of the medium was used to measure an amount of IL-4 secreted from the cells by using IL-4 enzyme-linked immunosorbent assay (ELISA, Komabiotech). A degree of inhibition of cell secretion by the drug was calculated using [Equation 1] below.
First of all, 288 kinds of materials were treated at a single concentration of 10 uM so as to select 60 kinds of materials which inhibit secretion of IL-4 by 75% or more (FIG. 19).
After that, a repeated experiment and a two-concentration (10, 3 uM) test were performed using the selected 60 kinds of materials so as to select the final eight kinds, and the IC50 value was calculated and shown in Table 3.

The next series is described as follows: in vitro. As to conditions: African green monkey.
The subject of the next series is SARS-COV-2. Put plainly: microbe, parasite or virus in culture. The series is classed as cell-based. Details: SI (Selectivity Index, CC50/IC50): unit not given here. As to conditions: for SI (Selectivity Index, CC50/IC50): SARS-COV-2, values >50 assumed to be 50; for IC50: Severe acute respiratory syndrome coronavirus 2, Vero cells, 24 hours infection, read-out: SARS-COV-2 inhibition (IC50).

The test system of series [4] is Balb/c mouse asthma model. Put plainly: Balb/c mouse asthma model (ovalbumin), BALF IgE, IL-4, IL-5 and inflammatory cells. In kind it is in vivo, Balb/c mice. The following applies: Example 73 10 mg/kg oral, dexamethasone 1 mg/kg intraperitoneal. On the procedure:
In detail, five-week-old Balb/c mice were purchased and acclimated for one week, after which the mice were sensitized systemically by intraperitoneal injection with 0.1% ovalbumin (OVA 1 mg/mL, Al(OH)3 20 mg/mL) at 100 μl/mouse on days 0 and 14 from a week after the acclimation. From a week (day 21) after a final systemic sensitization, the compound of Example 73 was orally administered everyday at 10 mg/kg to mice for ten days, and dexamethasone was intraperitoneally administered at 1 mg/kg as a positive control group. In one hour later, 0.2% ovalbumin solution was sprayed with a nebulizer (PARIBoy SX, GmbH, Germany) so as to be inhaled for one hour. In five hours after the final sensitization (day 30), an autopsy was performed, and 1 mL of phosphate buffer solution was flowed through a tracheotomy to collect a bronchoalveolar lavage fluid (BALF). The collected BALF was centrifuged at 3000 rpm for ten minutes, and the supernatant was used to measure bioactive materials (IL-4, IL-5), and pellets were used to measure the number of inflammatory cells. In addition, an IgE concentration in the isolated BALF was measured using IgE enzyme-linked immunosorbent assay (ELISA, Komabiotech), and IL-4 and IL-5 were measured using their respective enzyme-linked immunosorbent assay (ELISA, IL-4: Enzo #ADI-900-043, IL-5: R&D system #M5000).
The results are shown in Table 8 and FIG. 22, and each secretion inhibitory activity was calculated in the same manner as in [Equation 2] of Experimental Example 4.
In addition, the BALF pellets were re-dissolved by adding 0.5 mL of phosphate buffer solution, and then 0.1 mL for each thereof was added to a 96-well plate and centrifuged at 800 rpm for five minutes to attach cells to the bottom (three wells per sample). Then, the cells were stained with Diff Quik staining solution (Sysmex) and the number of cells was measured with […].
The results were shown in FIG. 21, the SPSS program was used for statistical processing, the Levene test was performed for equal-variance test, and the significance test was performed through one-way ANOVA.

The test system of series [5] is SFTS virus (KADGH; NCCP43261). Put plainly: microbe, parasite or virus in culture. In kind it is cell-based, severe fever with thrombocytopenia syndrome virus. The following applies: Severe fever with thrombocytopenia syndrome virus, Vero, 24 h, read-out: SFTSV inhibition (IC50, μM).
Series [6] concerns IL-5 expression in Th2 cells. Put plainly: Inhibition of IL-5 expression in Th2 cells (ELISA). The series is classed as cell-based, Balb/C mice. The following applies: Splenocyte; Th2 cells from mouse splenocytes, compound 1 nM; read-out: Inhibitory ability against IL-5 expression (%). On the procedure: Specifically, after spleens were collected from Balb/C mice, CD4+ T cells were isolated therefrom and were seeded at 1-2×10^6 per well into a 48-well tissue culture plate coated with anti-CD3 (5 ug/ml) and anti-CD28 (1 ug/ml). At this time, the culture medium was incubated with IL-2 (20 ng/ml), IL-4 (100 ng/ml), anti-IFNγ (10 ug/ml), anti-IL12 (10 ug/ml), and a derivative of 1 nM for two days, transferred to a new tissue culture plate, and further cultured for three days to induce differentiation into Th2 cells. After replacing with a new medium containing anti-IFNγ (10 ug/ml), anti-IL12 (10 ug/ml) and a derivative of 1 nM, polarization of Th2 cells was induced using PMA and A23187. After two days of culture, the cells were centrifuged and the culture medium was taken to perform IL-5 ELISA. IL-5 ELISA was performed according to the test method of the kit manufacturer.

The mark [7] stands for this setting: mouse splenocytes, compound 1 μM.
[8] abbreviates: RBL-2H3 cells, 1 uM A23187, read-out: IL-4 secretion inhibition IC50.

For `COc1cc2cc3c(c(-c4cnc(N5CCSCC5)nc4)c2cc1OC)C(=O)OC3` [Example 63, 6,7-dimethoxy-9-(2-thiomorpholinopyrimidin-5-yl)naphtho[2,3-c]furan-1(3H)-one], in series [1] (setting [7]), the inhibition at 1 µM was found to be 99.6% and the IL-4 pg/ml stood at 1.3 pg/mL. For the same molecule, in series [2] (setting [7]), the inhibition at 1 µM came out at 81.6% and the IL-5 pg/ml amounted to 17.2 pg/mL. Also, in series [3] (setting [8]), the IC50 (in general, the midpoint of a concentration-inhibition curve) amounted to 4.23 µM. Further, in the series “in vitro”, the CC50 was > 50 µM. Also, in the series with SARS-COV-2, the “SI (Selectivity Index, CC50/IC50)” value was 23.56 and the concentration for half-maximal inhibition (IC50) worked out at 2.12 µM.
As to `CCC(C)CN(C)c1ncc(-c2c3c(cc4cc(OC)c(OC)cc24)COC3=O)cn1` (centres unmarked) [Example 65, 6,7-dimethoxy-9-(2-(methyl(2-methylbutyl)amino)pyrimidin-5-yl)naphtho[2,3-c]furan-1(3H)-one], in series [1] (setting [7]), the inhibition at 1 µM came to 99.5% and the IL-4 pg/ml is 1.5 pg/mL. Also, in series [2] (setting [7]), the inhibition at 1 µM was 73% and the IL-5 pg/ml came to 25.2 pg/mL. In addition, the concentration for half-maximal inhibition (IC50) in series [3] (setting [8]) came out at 2.18 µM. In addition, the CC50 in “in vitro” is > 50 µM. In the series with SARS-COV-2, the “SI (Selectivity Index, CC50/IC50)” value is listed as 19.30 and the 50% inhibitory concentration (IC50) was found to be 2.59 µM.
Turning to `COc1cc2cc3c(c(-c4cnc(N5CCCC(C)C5)nc4)c2cc1OC)C(=O)OC3` (centres unmarked) [Example 59, 6,7-dimethoxy-9-(2-(3-methylpiperidin-1-yl)pyrimidin-5-yl)naphtho[2,3-c]furan-1(3H)-one], in series [1] (setting [7]), the inhibition at 1 µM came to 79% and the IL-4 pg/ml worked out at 71.6 pg/mL. Also, in series [2] (setting [7]), the inhibition at 1 µM is 44.3% and the IL-5 pg/ml is 51.9 pg/mL. Further, the IC50 in series [3] (setting [8]) came out at 2.35 µM. Further, in the series “in vitro”, the CC50 is > 50 µM. In the series with SARS-COV-2, the “SI (Selectivity Index, CC50/IC50)” value was found to be 20.79 and the IC50 is 2.4 µM.
`CCCCN(C)c1ncc(-c2c3c(cc4cc(OC)c(OC)cc24)COC3=O)cn1.Cl` [Example 76, 9-(2-(butyl(methyl)amino)pyrimidin-5-yl)-6,7-dimethoxynaphtho[2,3-c]furan-1(3H)-one hydrochloride]: the inhibition at 1 µM stood at 99.6% in series [1] (Mus musculus) and 85.6% in series [2] (Mus musculus). The IL-4 pg/ml in series [1] (setting [7]) turned out to be 1.2 pg/mL. Also, the IL-5 pg/ml in series [2] (setting [7]) was 13.4 pg/mL. Moreover, the IC50 in series [3] (RBL-2H3, read-out: IL-4 secretion inhibition IC50 (μM)) was 4.05 µM. For the same molecule, in the series on SARS-COV-2, the “SI (Selectivity Index, CC50/IC50)” value amounted to 270.89.
With `C[C@@H]1C[C@H]2[C@@H]3CCC4=CC(=O)C=C[C@]4(C)[C@@]3(F)[C@@H](O)C[C@]2(C)[C@@]1(O)C(=O)CO` [Dexamethasone, dexamethasone, reference compound], in series [4], the “BALF IL-4 Secretion inhibitory ability %” value is “(102.7%)”, the “BALF IL-5 Secretion inhibitory ability %” value is listed as “(50.0%)” and the “BALF IgE Secretion inhibitory ability %” value was “(93.0%)”. Also, in series [4] (Mean ± S.D., n = 5, ten days), the “BALF IL-4 pg/ml” value was 32.9 ± 4.534 ^## pg/ml, the “BALF IL-5 pg/ml” value was determined as 15.6 ± 8.07 pg/mL and the “BALF IgE ng/ml” value is reported as 1.3 ± 0.536 ^## ng/ml.
Regarding `NC(=O)c1nc(F)c[nH]c1=O` [Favipiravir], the half-inhibitory concentration (IC50) in series [5] was 278 µM.
For `COc1cc2cc3c(c(-c4ccc5oc6ccccc6c5c4)c2cc1OC)C(=O)OC3` [Example 43, 9-(dibenzo[b,d]furan-2-yl)-6,7-dimethoxynaphtho[2,3-c]furan-1(3H)-one], in series [6], the inhibition at 0.001 µM was determined as 65.9%. Further, the CC50 in “in vitro” was > 50 µM. Also, in the series with SARS-COV-2, the “SI (Selectivity Index, CC50/IC50)” value is given as 1.00 and the IC50 was > 50 µM.
Regarding `COc1cc2cc3c(c(-c4cnc(NCc5ccc(C)o5)nc4)c2cc1OC)C(=O)OC3` [Example 50, 6,7-dimethoxy-9-(2-(((5-methylfuran-2-yl)methyl)amino)pyrimidin-5-yl)naphtho[2,3-c]furan-1(3H)-one], the inhibition at 0.001 µM in series [6] was 61.5%. Besides, the CC50 in “in vitro” was > 50 µM. In the series on SARS-COV-2, the “SI (Selectivity Index, CC50/IC50)” value is on record as 5.27 and the IC50 amounted to 9.49 µM.
`COc1cc2cc3c(c(-c4cnc(N[C@H]5CC[C@H](O)CC5)nc4)c2cc1OC)C(=O)OC3` [Example 47, 9-(2-(((1r,4r)-4-hydroxycyclohexyl)amino)pyrimidin-5-yl)-6,7-dimethoxynaptho[2,3-c]furan-1(3H)-one]: the inhibition at 0.001 µM in series [6] came to 61%. Besides, the CC50 in “in vitro” is > 50 µM. In the series with SARS-COV-2, the “SI (Selectivity Index, CC50/IC50)” value stood at 1.00 and the IC50 is > 50 µM.
With `COc1cc2cc3c(c(-c4cnc(Nc5ccc(C)c(C)c5)nc4)c2cc1OC)C(=O)OC3` [Example 14, 9-(2-((3,4-dimethylphenyl)amino)pyrimidin-5-yl)-6,7-dimethoxynaphtho[2,3-c]furan-1(3H)-one], the inhibition at 0.001 µM in series [6] was 58.9%. The CC50 in the series “in vitro” was > 50 µM. In the series with SARS-COV-2, the “SI (Selectivity Index, CC50/IC50)” value was determined as 3.31 and the IC50 amounted to 15.1 µM.
